Measured values from PubChem BioAssay (NCI).
Values joined by “and” are separate entries in the source; they are usually repeats but may differ in a detail not shown here. Identical values can stand only once.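 Assay format: 96-well plates, 48-hour exposure. Abbreviation: GI50, concentration required for 50% inhibition of growth. TGI denotes the concentration required for complete inhibition of growth.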

What was measured:
Experiment in all cases: DTP human tumour cell line panel, 48 h
[1] = tested on: EKVX NSCLC
[2] = tested on: HT29 colon
[3] = tested on: NCI-H522 lung
[4] = tested on: ACHN renal
[5] = tested on: HCT-116 colon
[6] = tested on: K-562 leukemia
[7] = tested on: A549 NSCLC
[8] = tested on: NCI-H226 lung
[9] = tested on: NCI-H23 lung
[10] = tested on: NCI-H460 lung

CC1=C[C@H]2c3c(c(O)c(O)c4oc5cc(O)cc(O)c5c(=O)c34)[C@H](c3cc(O)c(O)c4oc5cc(O)cc(O)c5c(=O)c34)[C@H]2C(C)(C)C1
GI50 [1]: 2.67 µM and 2.2 µM
TGI [1]: 13.7 µM and 8.53 µM
GI50 [2]: 1.49 µM and 2.96 µM
TGI [2]: 5.74 µM and 12 µM
GI50 [3]: 1.3 µM and 1.34 µM
TGI [3]: 3.04 µM and 4.56 µM
GI50 [4]: 1.73 µM and 1.84 µM
TGI [4]: 5.27 µM and 10.2 µM
GI50 [5]: 0.462 µM and 0.947 µM
TGI [5]: 1.87 µM and 2.22 µM
GI50 [6]: 0.477 µM and 0.536 µM
TGI [6]: 10.3 µM and > 100 µM
GI50 [7]: 0.686 µM and 1.67 µM
TGI [7]: 6.17 µM and 24.9 µM
GI50 [8]: 2.16 µM and 1.99 µM
TGI [8]: 5.88 µM and 5.25 µM
GI50 [9]: 1.04 µM and 1.21 µM
TGI [9]: 2.95 µM and 3.39 µM

CCOC(=O)CNC(SC)=C(C#N)C#N
TGI [1]: > 100 µM
TGI [2]: > 100 µM
TGI [3]: > 100 µM
TGI [5]: > 100 µM
TGI [6]: > 100 µM
TGI [7]: > 100 µM
TGI [8]: > 100 µM
TGI [9]: > 100 µM
TGI [10]: > 100 µM

CC1(C)CCc2cc3c(cc2O1)OC(C)(C)C1c2c(ccc4c2CCC(C)(C)O4)OC31 (stereo not drawn)
TGI [1]: > 100 µM
TGI [2]: > 100 µM
TGI [3]: > 100 µM
TGI [4]: > 100 µM
TGI [5]: > 100 µM
TGI [6]: > 100 µM
TGI [7]: > 100 µM
TGI [8]: > 100 µM
TGI [9]: > 100 µM
TGI [10]: > 100 µM

Cc1cc(C)cc(Nc2nccc(-c3c(-c4ccc(F)cc4)ncn3C3CCNCC3)n2)c1
GI50 [1]: 1.4 µM
TGI [1]: 3.19 µM
GI50 [2]: 0.78 µM
TGI [2]: 2.43 µM
GI50 [3]: 1.5 µM
TGI [3]: 3.45 µM
GI50 [4]: 0.46 µM
TGI [4]: 1.79 µM
GI50 [5]: 1.13 µM
TGI [5]: 2.36 µM
GI50 [6]: 1.03 µM
TGI [6]: 3.59 µM
GI50 [7]: 1.09 µM
TGI [7]: 3.16 µM
GI50 [8]: 1.67 µM
TGI [8]: 5.12 µM
GI50 [9]: 1.88 µM
TGI [9]: 4.21 µM
GI50 [10]: 1.27 µM
TGI [10]: 2.77 µM

COc1ccc(S(=O)(=O)O)cc1NS(=O)(=O)c1ccc(C)cc1
TGI [1]: > 100 µM
TGI [2]: > 100 µM
TGI [3]: > 100 µM
TGI [4]: > 100 µM
TGI [5]: > 100 µM
TGI [6]: > 100 µM
TGI [7]: > 100 µM
TGI [8]: > 100 µM
TGI [9]: > 100 µM
TGI [10]: > 100 µM

COc1cc(Nc2ncc3c(n2)-c2ccc(Cl)cc2C(c2c(F)cccc2OC)=NC3)ccc1C(=O)O
GI50 [1]: 13.1 µM
TGI [1]: 69.1 µM
GI50 [2]: 2.24 µM
TGI [2]: 23.8 µM
GI50 [3]: 0.501 µM
TGI [3]: 3.88 µM
GI50 [4]: 2.34 µM
TGI [4]: 55.1 µM
GI50 [6]: 5.24 µM
TGI [6]: > 100 µM
GI50 [7]: 0.505 µM
TGI [7]: 37.8 µM
GI50 [8]: 2.06 µM
TGI [8]: 18.1 µM
GI50 [9]: 10.9 µM
TGI [9]: 65.1 µM
GI50 [10]: 0.0412 µM
TGI [10]: > 83.6 µM

COc1cc(C/C=C/c2ccccc2)c(OC)cc1O
TGI [1]: 33.3 µM
TGI [2]: 37.8 µM
TGI [3]: 40.9 µM
TGI [4]: 52.7 µM
TGI [5]: 31.1 µM
TGI [6]: 31.6 µM
TGI [7]: > 100 µM
TGI [8]: 79.3 µM
TGI [9]: 42.8 µM
TGI [10]: 39.7 µM

Cn1cc2ccccc2c1-c1nc(F)nc(Oc2ccc3c(c2)CC[C@@H]2C3CC[C@]3(C)C(O)CCC23)n1 (stereo partly drawn)
TGI [3]: 26 µM
TGI [4]: 34.1 µM
TGI [5]: 35.8 µM
TGI [6]: > 100 µM
TGI [7]: 48.9 µM
TGI [8]: > 100 µM

O=C(c1ccc(O)cc1)c1ccc(C(=O)c2ccc(O)cc2)cc1
GI50 [1]: 8.33 µM
TGI [1]: > 100 µM
GI50 [2]: > 100 µM
TGI [2]: > 100 µM
GI50 [3]: 8.05 µM
TGI [3]: > 100 µM
GI50 [4]: > 100 µM
TGI [4]: > 100 µM
GI50 [5]: > 100 µM
TGI [5]: > 100 µM
GI50 [7]: > 100 µM
TGI [7]: > 100 µM
GI50 [8]: 33.5 µM
TGI [8]: > 100 µM
GI50 [9]: 75.3 µM
TGI [9]: > 100 µM

COc1ccc(CNc2nc3ccccc3nc2-c2cccs2)cc1OC
TGI [1]: > 100 µM
TGI [2]: > 100 µM
TGI [4]: > 100 µM
TGI [5]: > 100 µM
TGI [6]: > 100 µM
TGI [7]: > 100 µM
TGI [8]: > 100 µM
TGI [9]: > 100 µM
TGI [10]: > 100 µM

O=C1C2Cc3ccccc3CN2C(=O)N1CN1CCN(CN2C(=O)C3Cc4ccccc4CN3C2=O)CC1 (stereo not drawn)
TGI [1]: > 100 µM
TGI [2]: > 100 µM
TGI [3]: > 100 µM
TGI [4]: > 100 µM
TGI [6]: > 100 µM
TGI [7]: > 100 µM
TGI [8]: > 100 µM
TGI [9]: > 100 µM
TGI [10]: > 100 µM

CC(=O)Nc1ccc(-c2nnc(SCC(=O)Nc3ccccc3[N+](=O)[O-])o2)cc1
TGI [2]: > 100 µM
TGI [3]: > 100 µM
TGI [4]: > 100 µM
TGI [5]: > 100 µM
TGI [6]: > 100 µM
TGI [7]: > 100 µM
TGI [8]: > 100 µM
TGI [9]: > 100 µM
TGI [10]: > 100 µM

COc1cc2c(cc1OCCCCC(=O)Nc1ccc(-c3nc4ccccc4s3)cc1)N=C[C@@H]1CCCN1C2=O
GI50 [1]: 2.45 µM
TGI [1]: 5.52 µM
GI50 [2]: 2.16 µM
TGI [2]: 7.75 µM
GI50 [3]: 0.972 µM
TGI [3]: 2.65 µM
GI50 [4]: 3 µM
TGI [4]: 8.53 µM
GI50 [5]: 1.86 µM
TGI [5]: 5.78 µM
GI50 [6]: 1.75 µM
TGI [6]: 11 µM
GI50 [7]: 3.38 µM
TGI [7]: 11.2 µM
GI50 [8]: 2.91 µM
TGI [8]: 7.83 µM
GI50 [10]: 1.67 µM
TGI [10]: 3.6 µM

CC(=O)OC1CCC2(C)C(CCC3C2CCC2(C)C(C4=CC(=O)OC4)CCC32)C1 (stereo not drawn)
GI50 [2]: 13.1 µM
TGI [2]: 75.6 µM
GI50 [3]: 1.53 µM
TGI [3]: 3.99 µM
GI50 [4]: 12.3 µM
TGI [4]: 38.9 µM
GI50 [5]: 7.66 µM
TGI [5]: > 100 µM
GI50 [6]: 2.02 µM
TGI [6]: 5.27 µM
GI50 [7]: 3.05 µM
TGI [7]: 19.7 µM
GI50 [8]: 22.1 µM
TGI [8]: 65.1 µM
GI50 [9]: 3.46 µM
TGI [9]: 14.5 µM
GI50 [10]: 0.681 µM
TGI [10]: 11 µM

O=C1c2cnccc2Cc2cccc3c2N1c1ccccc1S3
TGI [2]: 74.8 µM
TGI [3]: 32.2 µM
TGI [4]: 73.9 µM
TGI [5]: 33.8 µM
TGI [6]: > 100 µM
TGI [7]: > 100 µM
TGI [9]: 52.7 µM

CC(C)O/C=C1\C(=O)C2(SCCS2)[C@H]2CCCC[C@@H]12
TGI [3]: 53.9 µM
TGI [4]: > 100 µM
TGI [5]: > 100 µM
TGI [6]: > 100 µM
TGI [7]: > 100 µM
TGI [8]: > 100 µM
TGI [10]: > 100 µM

COc1cc2ccc(CC#N)cc2cc1OC
TGI [1]: > 100 µM
TGI [2]: > 100 µM
TGI [4]: > 100 µM
TGI [6]: > 100 µM
TGI [7]: > 100 µM
TGI [8]: > 100 µM
TGI [9]: > 100 µM
TGI [10]: > 100 µM

O=C(N/C(=C\c1ccc([N+](=O)[O-])cc1)c1nc2[nH]c(=S)[nH]c(=O)c2[nH]1)c1ccccc1
TGI [1]: > 100 µM
TGI [2]: > 100 µM
TGI [3]: > 100 µM
TGI [4]: > 100 µM
TGI [6]: > 100 µM
TGI [7]: > 100 µM
TGI [9]: > 100 µM

O=C1Cc2ccccc2N1/N=C\c1ccc(O)cc1
TGI [1]: > 100 µM
TGI [2]: > 100 µM
TGI [4]: > 100 µM
TGI [5]: > 100 µM
TGI [6]: > 100 µM
TGI [7]: > 100 µM
TGI [8]: > 100 µM
TGI [9]: > 100 µM
TGI [10]: > 100 µM
